This test concerns the target T1, total muscarinic receptor.
T1 construct: gene Chrm1
In kind it is biochemical, Rattus norvegicus. To be noted: control rats; striatal membranes; 1 nM [3H]QNB; Tris-HCl-EDTA pH 7.4; 22°C; one-site fit; unit not printed (concentrations in M); logarithmic value; EC50 stated to be same as IC50. From the text:
[3H]QNB displacement, filtration on total muscarinic receptor

One compound from PMC2682793, “Enhanced muscarinic M1 receptor gene expression in the corpus striatum of streptozotocin-induced diabetic rats” (Journal of Biomedical Science, 2009) can be followed below.

Regarding `CN1[C@@H]2CC[C@H]1CC(OC(=O)C(CO)c1ccccc1)C2` (stereo partly shown) [atropine], the “Log (EC50)” value is reported as -7.076.
